Data as given in patent publication US20150285817A1 (priority 2014, published 2015).
Like-named read-outs stand apart in the source and are kept apart here.

Test system: NSCLC patients
Conditions: VeriStrat poor patients, SCR samples
Description: Briefly, by way of overview, 188 patients were enrolled in the study. Key entry criteria for the study were Stage III/IV NSCLC, treatment-naïve, adenocarcinoma histology, with the patients selected from an Asian population and being either non-smokers or light former smokers. Stratification of the population was based on Eastern Cooperative Oncology Group Performance Status (ECOG PS), smoking history, and gender.
In summary, we obtained pre-treatment serum samples from all 188 patients enrolled in the study described above. The samples were blinded and subject to MALDI-TOF mass-spectrometry. The resulting mass spectra were subject to predefined pre-processing steps, described below, and integrated intensity values at pre-defined m/z positions ranges, (i.e., feature values) in the pre-processed spectra were obtained. […]
The pre-treatment serum samples used in the foregoing analysis were largely derived from patient blood samples originally drawn immediately prior to drug dosing (hereafter called “C1D1” samples) in order to define baselines for drug pharmacokinetics and pharmacodynamics. Subsequently, a set of blood samples was analyzed, these being derived from blood draws taken from 1-12 days (median 4.4 days) prior to drug dosing (hereafter called “SCR” samples) for purposes of establishing patient eligibility for study with respect to blood chemistries.

## COc1cc2ncnc(Nc3ccc(F)c(Cl)c3)c2cc1OCCCN1CCOCC1 [gefitinib]
EGFR SM+ population
  median PFS: 4.1 months
ITT population
  median PFS: 2.7 months
